Measurements: PubChem BioAssay (NCI)
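Dose response: 5 concentrations. Exposure: 48 h. Format: 96-well plates. Endpoint: linear interpolation; highest concentration if not reached. Abbreviation: GI50, concentration required for 50% inhibition of growth. TGI: total growth inhibition.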

What was measured:
Experiment in all cases: NCI anticancer screen, dose series, 48 h
786-0 renal = test system: 786-0 renal
A498 renal = test system: A498 renal
A549 NSCLC = test system: A549 NSCLC
ACHN renal = test system: ACHN renal
BT-549 breast = test system: BT-549 breast
CCRF-CEM leukemia = test system: CCRF-CEM leukemia
COLO 205 colon = test system: COLO 205 colon
DU-145 prostate = test system: DU-145 prostate
EKVX NSCLC = test system: EKVX NSCLC
HCC-2998 colon = test system: HCC-2998 colon
HCT-15 colon = test system: HCT-15 colon
HOP-92 NSCLC = test system: HOP-92 NSCLC
HS 578T breast = test system: HS 578T breast
HT29 colon = test system: HT29 colon
IGROV1 ovarian = test system: IGROV1 ovarian
KM12 colon = test system: KM12 colon
M14 melanoma = test system: M14 melanoma
MALME-3M melanoma = test system: MALME-3M melanoma
MCF7 breast = test system: MCF7 breast
MDA-MB-231 breast = test system: MDA-MB-231 breast
MDA-MB-435 = test system: MDA-MB-435
NCI-H226 lung = test system: NCI-H226 lung
NCI-H23 lung = test system: NCI-H23 lung
NCI-H460 lung = test system: NCI-H460 lung
NCI-H522 lung = test system: NCI-H522 lung
NCI/ADR-RES ovarian = test system: NCI/ADR-RES ovarian
OVCAR-3 ovarian = test system: OVCAR-3 ovarian
OVCAR-4 ovarian = test system: OVCAR-4 ovarian
OVCAR-5 ovarian = test system: OVCAR-5 ovarian
OVCAR-8 ovarian = test system: OVCAR-8 ovarian
PC-3 prostate = test system: PC-3 prostate
RPMI-8226 leukemia = test system: RPMI-8226 leukemia
RXF 393 renal = test system: RXF 393 renal
SF-268 CNS = test system: SF-268 CNS
SF-295 CNS = test system: SF-295 CNS
SF-539 CNS = test system: SF-539 CNS
SK-MEL-28 melanoma = test system: SK-MEL-28 melanoma
SK-MEL-5 melanoma = test system: SK-MEL-5 melanoma
SK-OV-3 ovarian = test system: SK-OV-3 ovarian
SN12C renal = test system: SN12C renal
SNB-19 CNS = test system: SNB-19 CNS
SNB-75 CNS = test system: SNB-75 CNS
SW-620 colon = test system: SW-620 colon
T-47D breast = test system: T-47D breast
TK-10 renal = test system: TK-10 renal
U251 CNS = test system: U251 CNS
UACC-257 melanoma = test system: UACC-257 melanoma
UACC-62 melanoma = test system: UACC-62 melanoma
UO-31 renal = test system: UO-31 renal

CCc1cccc(CC)c1NC(=O)c1ccn2c1CCc1cnc(Nc3ccc(N4CCN(C)CC4)cc3OC)nc1-2
GI50 (786-0 renal): 1.66 µM | TGI (786-0 renal): 3.84 µM | GI50 (A498 renal): 10.9 µM | TGI (A498 renal): 23.5 µM | GI50 (A549 NSCLC): 2.17 µM | TGI (A549 NSCLC): 42 µM | GI50 (ACHN renal): 2.31 µM | TGI (ACHN renal): 12.4 µM | GI50 (BT-549 breast): 2.23 µM | TGI (BT-549 breast): 6.63 µM | GI50 (CCRF-CEM leukemia): 0.213 µM | TGI (CCRF-CEM leukemia): 6.6 µM | GI50 (COLO 205 colon): 0.0231 µM | TGI (COLO 205 colon): 2.36 µM | GI50 (DU-145 prostate): 2.6 µM | TGI (DU-145 prostate): 15.8 µM | GI50 (EKVX NSCLC): 3.02 µM | TGI (EKVX NSCLC): 19.6 µM | GI50 (HCC-2998 colon): 2.28 µM | TGI (HCC-2998 colon): 8.63 µM | GI50 (HCT-15 colon): 0.0413 µM | TGI (HCT-15 colon): 2.55 µM | GI50 (HOP-92 NSCLC): 1.95 µM | TGI (HOP-92 NSCLC): 9.66 µM | GI50 (HS 578T breast): 2.24 µM | TGI (HS 578T breast): 11 µM | GI50 (HT29 colon): 1.26 µM | TGI (HT29 colon): 9.36 µM | GI50 (IGROV1 ovarian): 2.52 µM | TGI (IGROV1 ovarian): 19.4 µM | GI50 (KM12 colon): 2.63 µM | TGI (KM12 colon): 14.8 µM | GI50 (M14 melanoma): 1.59 µM | TGI (M14 melanoma): 3.62 µM | GI50 (MALME-3M melanoma): 1.87 µM | TGI (MALME-3M melanoma): 3.8 µM | GI50 (MCF7 breast): 1.12 µM | TGI (MCF7 breast): 7.55 µM | GI50 (MDA-MB-231 breast): 2.11 µM | TGI (MDA-MB-231 breast): 8.29 µM | GI50 (MDA-MB-435): 2.51 µM | TGI (MDA-MB-435): 11.7 µM | GI50 (NCI-H226 lung): 14.7 µM | TGI (NCI-H226 lung): 45.2 µM | GI50 (NCI-H23 lung): 4.48 µM | TGI (NCI-H23 lung): 27 µM | GI50 (NCI-H460 lung): 0.0814 µM | TGI (NCI-H460 lung): 10.7 µM | GI50 (NCI-H522 lung): 1.81 µM | TGI (NCI-H522 lung): 4.32 µM | GI50 (NCI/ADR-RES ovarian): 1.33 µM | TGI (NCI/ADR-RES ovarian): > 100 µM | GI50 (OVCAR-3 ovarian): 1.55 µM | TGI (OVCAR-3 ovarian): 4.22 µM | GI50 (OVCAR-4 ovarian): 3.77 µM | TGI (OVCAR-4 ovarian): 18.1 µM | GI50 (OVCAR-5 ovarian): 3.51 µM | TGI (OVCAR-5 ovarian): 22 µM | GI50 (OVCAR-8 ovarian): 2.19 µM | TGI (OVCAR-8 ovarian): 32.8 µM | GI50 (PC-3 prostate): 2.5 µM | TGI (PC-3 prostate): 16.2 µM | GI50 (RPMI-8226 leukemia): 1.92 µM | TGI (RPMI-8226 leukemia): 6.58 µM | GI50 (RXF 393 renal): 1.58 µM | TGI (RXF 393 renal): 3.08 µM | GI50 (SF-268 CNS): 3.14 µM | TGI (SF-268 CNS): 17.8 µM | GI50 (SF-295 CNS): 1.62 µM | TGI (SF-295 CNS): 3.73 µM | GI50 (SF-539 CNS): 1.1 µM | TGI (SF-539 CNS): 3.19 µM | GI50 (SK-MEL-28 melanoma): 1.76 µM | TGI (SK-MEL-28 melanoma): 3.55 µM | GI50 (SK-MEL-5 melanoma): 1.61 µM | TGI (SK-MEL-5 melanoma): 3.02 µM | GI50 (SK-OV-3 ovarian): 11.3 µM | TGI (SK-OV-3 ovarian): 23.4 µM | GI50 (SN12C renal): 2.13 µM | TGI (SN12C renal): 13.9 µM | GI50 (SNB-19 CNS): 3.57 µM | TGI (SNB-19 CNS): 15.2 µM | GI50 (SNB-75 CNS): 1.87 µM | TGI (SNB-75 CNS): 7.47 µM | GI50 (SW-620 colon): 1.11 µM | TGI (SW-620 colon): 5.94 µM | GI50 (T-47D breast): 1.55 µM | TGI (T-47D breast): 4.18 µM | GI50 (TK-10 renal): 2.93 µM | TGI (TK-10 renal): 16.2 µM | GI50 (U251 CNS): 1.84 µM | TGI (U251 CNS): 5.99 µM | GI50 (UACC-257 melanoma): 2.05 µM | TGI (UACC-257 melanoma): 4.8 µM | GI50 (UACC-62 melanoma): 2.08 µM | TGI (UACC-62 melanoma): 4.52 µM | GI50 (UO-31 renal): 1.55 µM | TGI (UO-31 renal): 7.74 µM
